Experiments:
[1] = test system: Influenza A virus; experiment: Antiviral activity against influenza A virus H5N1 infected in dog MDCK cells assessed as viral growth inhibition; type: functional, organism-based
[2] = molecular target: Neuraminidase (Influenza A virus, UniProt B4URF0)
[3] = Oral bioavailability in ferret at 10 mg/kg measured upto 24 hrs by LC-MS/MS assay; type: ADME, organism-based, Mustela putorius furo; details: in vivo
[4] = AUC in rat at 10 mg/kg; type: ADME, organism-based; set-up: dose 10 mg/kg; details: in vivo
[5] = Cmax in rat at 10 mg/kg; type: ADME, organism-based; set-up: dose 10 mg/kg; details: in vivo
[6] = Oral bioavailability in rat; type: ADME, organism-based; details: in vivo
[7] = AUC in rat at 20 mg/kg; type: ADME, organism-based; set-up: dose 20 mg/kg; details: in vivo
[8] = Cmax in rat at 20 mg/kg; type: ADME, organism-based; set-up: dose 20 mg/kg; details: in vivo

## CCC(CC)O[C@@H]1C=C(C(=O)O)C[C@H](NC(=O)COCCOCCOCCOCCN[C@H](C(=O)N2C[C@H](O)CC2C(=O)NCc2ccc(-c3scnc3C)cc2)C(C)(C)C)[C@H]1NC(C)=O (some centres undefined)
[1]
  EC50: 290 nM

## CC(=O)N[C@@H]1[C@@H](N)CC(C(=O)O)=C[C@H]1OC1CCSC1 (some centres undefined)
[2]
  IC50: 2.9 nM

## CCCCCCCC(=O)OC[C@@H](O)[C@@H](OC)[C@@H]1OC(C(=O)O)=C[C@H](NC(=N)N)[C@H]1NC(C)=O [LANINAMIVIR OCTANOATE]
[3]
  bioavailability: 3.5%

## CCC(CC)O[C@@H]1C=C(C(=O)O)CC(N)[C@H]1NC(C)=O (some centres undefined)
[1]
  EC50: 2300 nM
[4]
  AUC: 300 ng·h/mL
[5]
  Cmax: 30 ng/mL

## CCC(CC)[C@H](NC(C)=O)[C@@H]1[C@H](O)[C@@H](C(=O)O)C[C@H]1NC(=N)N [PERAMIVIR ANHYDROUS]
[6]
  bioavailability: 2.5%

## CCC(CC)O[C@@H]1C=C(C(=O)O)C[C@H](NCc2ccc(Sc3ccccc3)cc2)[C@H]1NC(C)=O
[7]
  AUC: 1500 ng·h/mL
[8]
  Cmax: 407 ng/mL
